Read-outs that look alike come from different tables or passages of the source.
What was measured:
[1] = test system: HIV-IIIb; experiment: Test A: Antiviral Assay in MT4 Cells; format: cell-based, HIV-1; details: for inhibition at 0.2 µM / inhibition at 2 µM: Human immunodeficiency virus 1, IIIB, comparison with previously published compounds (WO 2013/006738); for inhibition at 0.2 µM: MT4, read-out: Response at 0.2 μM (percent inhibition of virus-induced cell killing), 0.2 μM; for inhibition at 2 µM: MT4, read-out: Response at 2 μM (percent inhibition of virus-induced cell killing), 2 μM; for % inhibition at 0.2 μM (percent inhibition of virus-induced cell killing): 0.2 μM drug concentration; for % inhibition at 0.2 μM (percent inhibition of virus-induced cell killing) / % inhibition at 2 μM (percent inhibition of virus-induced cell killing): MT-4 cells infected with HIV-IIIb, 5 days, calculated from the dose response curve, values above 100 normalized to 100%; for % inhibition at 2 μM (percent inhibition of virus-induced cell killing): 2 μM drug concentration
Method: Test A: Antiviral Assay in MT4 Cells
(§1) MT-4 cells were next mixed with HIV-IIIb at an m.o.i of 0.003 for 1 hour, after which time 35 μL of virus/cell mixture (2000 cells) was immediately added to each well containing 40 μL of diluted compound. The plates were then incubated at 37° C. for 5 days. […] Cell lysis was carried out by incubating at room temperature for 10 min and then chemiluminescence was read.
The data above represent an average over time of each assay for each compound. […] Thus, the data reported in the tables include the data reported in the priority document, as well as data from assays run in the intervening period.

[2] = test system: uninfected MT-4 cells; experiment: Test B: Cytotoxicity Assay; format: cell-based
Method: as §1
Test B: Cytotoxicity Assay
Compound cytotoxicity and the corresponding CC50 values was determined using the same protocol as described in the antiviral assay (Test A) except that uninfected cells were used.

[3] = uninfected MT-4 cells, same protocol as Test A, 5 days, read-out: CC50

CC(C)(O)C#Cc1ccc(-c2ccc(F)c(C(N)=O)c2)c([C@H](Cc2cc(F)cc(F)c2)NC(=O)Cn2nc(C(F)F)c3c2C(F)(F)CCC3(F)F)n1
inhibition at 0.2 µM [1]: 71% | inhibition at 2 µM [1]: 84%

NC(=O)c1cc(-c2ccc(-c3ccc(F)c(C(N)=O)c3)c([C@H](Cc3cc(F)cc(F)c3)NC(=O)Cn3nc(C(F)F)c4c3C(F)(F)CCC4(F)F)n2)ccc1F
inhibition at 0.2 µM [1]: 3% | inhibition at 2 µM [1]: 58%

CC(C)(O)C#Cc1ccc(-c2ccc(F)c(C(N)=O)c2)c([C@H](Cc2cc(F)cc(F)c2)NC(=O)Cn2nc(C(F)(F)F)c3c2C(F)(F)[C@@H]2C[C@H]32)n1
inhibition at 0.2 µM [1]: 96% | inhibition at 2 µM [1]: 90%

CC(C)(O)C#Cc1ccc(-c2cccc3c2CNC3=O)c([C@H](Cc2cc(F)cc(F)c2)NC(=O)Cn2nc(C(F)(F)F)c3c2C(F)(F)[C@@H]2C[C@H]32)n1 [Compound 15, 2-((3bS,4aR)-5,5-difluoro-3-(trifluoromethyl)-3b,4,4a,5-tetrahydro-1H-cyclopropa[3,4]cyclopenta[1,2-c]pyrazol-1-yl)-N—((S)-2-(3,5-difluorophenyl)-1-(6-(3-hydroxy-3-methylbut-1-yn-1-yl)-3-(1-oxoisoindolin-4-yl)pyridin-2-yl)ethyl)acetamide]
% inhibition at 0.2 μM (percent inhibition of virus-induced cell killing) [1]: 93% | % inhibition at 2 μM (percent inhibition of virus-induced cell killing) [1]: 94% | CC50 [2, 3]: 10.3 µM

Cn1nc(N)c2c(Cl)ccc(-c3ccc(C#CC(C)(C)O)nc3[C@H](Cc3cc(F)cc(F)c3)NC(=O)Cn3nc(C(F)(F)F)c4c3C(F)(F)[C@@H]3C[C@H]43)c21 [Compound 55C]
% inhibition at 0.2 μM (percent inhibition of virus-induced cell killing) [1]: 92% | % inhibition at 2 μM (percent inhibition of virus-induced cell killing) [1]: 92% | CC50 [2]: 9.56 µM

Cn1nc(N)c2c(C#N)ccc(-c3ccc(C#CC(C)(C)O)nc3[C@H](Cc3cc(F)cc(F)c3)NC(=O)Cn3nc(C(F)F)c4c3C(F)(F)[C@@H]3C[C@H]43)c21 [Compound 77E]
% inhibition at 0.2 μM (percent inhibition of virus-induced cell killing) [1]: 96% | % inhibition at 2 μM (percent inhibition of virus-induced cell killing) [1]: 97% | CC50 [2]: 11.8 µM

CCNc1nn(C)c2c(-c3ccc(C#CC(C)(C)O)nc3[C@H](Cc3cc(F)cc(F)c3)NC(=O)Cn3nc(C(F)F)c4c3C(F)(F)[C@@H]3C[C@H]43)ccc(Cl)c12 [Compound 91E]
% inhibition at 0.2 μM (percent inhibition of virus-induced cell killing) [1]: 100% | % inhibition at 2 μM (percent inhibition of virus-induced cell killing) [1]: 100% | CC50 [2]: 9.38 µM

CC(C)(O)C#Cc1ccc(-c2ccc3nnc(N)n3c2)c([C@H](Cc2cc(F)cc(F)c2)NC(=O)Cn2nc(C(F)F)c3c2C(F)(F)[C@@H]2C[C@H]32)n1 [Compound 105E]
% inhibition at 2 μM (percent inhibition of virus-induced cell killing) [1]: 74% | CC50 [2]: 31.5 µM

CC(C)(O)C#Cc1ccc(-c2ccc(Cl)n3c(N)nnc23)c([C@H](Cc2cc(F)cc(F)c2)NC(=O)Cn2nc(C(F)F)c3c2C(F)(F)[C@@H]2C[C@H]32)n1 [Compound 106E]
% inhibition at 0.2 μM (percent inhibition of virus-induced cell killing) [1]: 95% | % inhibition at 2 μM (percent inhibition of virus-induced cell killing) [1]: 96% | CC50 [2]: 12.4 µM

CC(C)(O)C#Cc1ccc(-c2ccc(Cl)n3c(NS(C)(=O)=O)nnc23)c([C@H](Cc2cc(F)cc(F)c2)NC(=O)Cn2nc(C(F)F)c3c2C(F)(F)[C@@H]2C[C@H]32)n1 [Compound 110E]
% inhibition at 0.2 μM (percent inhibition of virus-induced cell killing) [1]: 15% | % inhibition at 2 μM (percent inhibition of virus-induced cell killing) [1]: 98% | CC50 [2]: > 53.2 µM

COc1ccc(-c2ccc(C#CC(C)(C)O)nc2[C@H](Cc2cc(F)cc(F)c2)NC(=O)Cn2nc(C(F)F)c3c2C(F)(F)[C@@H]2C[C@H]32)c2c1c(N)nn2C [Compound 114G]
% inhibition at 0.2 μM (percent inhibition of virus-induced cell killing) [1]: 100% | % inhibition at 2 μM (percent inhibition of virus-induced cell killing) [1]: 100% | CC50 [2]: 14.8 µM

Cc1nc(NS(C)(=O)=O)c2cccc(-c3ccc(C#CC(C)(C)O)nc3[C@H](Cc3cc(F)cc(F)c3)NC(=O)Cn3nc(C(F)F)c4c3C(F)(F)[C@@H]3C[C@H]43)n12 [Compound 120H, 2-((3bS,4aR)-3-(difluoromethyl)-5,5-difluoro-3b,4,4a,5-tetrahydro-1H-cyclopropa[3,4]cyclopenta[1,2-c]pyrazol-1-yl)-N—((S)-2-(3,5-difluorophenyl)-1-(6-(3-hydroxy-3-methylbut-1-yn-1-yl)-3-(3-methyl-1-(methylsulfonamido)imidazo[1,5-a]pyridin-5-yl)pyridin-2-yl)ethyl)acetamide]
CC50 [2, 3]: 11.7 µM

Cn1nc(NS(C)(=O)=O)c2c(Cl)ccc(-c3ccc(C#CC(C)(C)N)nc3[C@H](Cc3cc(F)cc(F)c3)NC(=O)Cn3nc(C(F)F)c4c3C(F)(F)[C@@H]3C[C@H]43)c21 [Compound 127, N—((S)-1-(6-(3-amino-3-methylbut-1-yn-1-yl)-3-(4-chloro-1-methyl-3-(methylsulfonamido)-1H-indazol-7-yl)pyridin-2-yl)-2-(3,5-difluorophenyl)ethyl)-2-((3bS,4aR)-3-(difluoromethyl)-5,5-difluoro-3b,4,4a,5-tetrahydro-1H-cyclopropa[3,4]cyclopenta[1,2-c]pyrazol-1-yl)acetamide]
CC50 [2, 3]: 8.76 µM

C#Cc1ccc(-c2ccc(Cl)c3cnn(C)c23)c([C@H](Cc2cc(F)cc(F)c2)NC(=O)Cn2nc(C(F)F)c3c2C(F)(F)[C@@H]2C[C@H]32)n1 [Compound 136D, N—((S)-1-(3-(4-chloro-1-methyl-1H-indazol-7-yl)-6-ethynylpyridin-2-yl)-2-(3,5-difluorophenyl)ethyl)-2-((3bS,4aR)-3-(difluoromethyl)-55-difluoro-3b,4,4a,5-tetrahydro-1H-cyclopropa[3,4]cyclopenta[1,2-c]pyrazol-1-yl)acetamide]
CC50 [2]: 7.43 µM

Cn1nc(NS(C)(=O)=O)c2c(Cl)ccc(-c3ccc(C#CC(C)(C)O)nc3[C@H](Cc3cc(F)cc(F)c3)NC(=O)Cn3nc(Cl)c4c3C(F)(F)[C@@H]3C[C@H]43)c21 [Compound 149, N—((S)-1-(3-(4-chloro-1-methyl-3-(methylsulfonamido)-1H-indazol-7-yl)-6-(3-hydroxy-3-methylbut-1-yn-1-yl)pyridin-2-yl)-2-(3,5-difluorophenyl)ethyl)-2-((3bS,4aR)-3-chloro-5,5-difluoro-3b,4,4a,5-tetrahydro-1H-cyclopropa[3,4]cyclopenta[1,2-c]pyrazol-1-yl)acetamide]
CC50 [2, 3]: 26.7 µM

Cn1nc(NS(C)(=O)=O)c2c(Cl)ccc(-c3ccc(C#CC(C)(C)O)nc3[C@H](Cc3cc(F)cc(F)c3)NC(=O)Cn3ncc4c3C(F)(F)[C@@H]3C[C@H]43)c21 [Compound 150, N—((S)-1-(3-(4-chloro-1-methyl-3-(methylsulfonamido)-1H-indazol-7-yl)-6-(3-hydroxy-3-methylbut-1-yn-1-yl)pyridin-2-yl)-2-(3,5-difluorophenyl)ethyl)-2-((3bS,4aR)-5,5-difluoro-3b,4,4a,5-tetrahydro-1H-cyclopropa[3,4]cyclopenta[1,2-c]pyrazol-1-yl)acetamide]
CC50 [2, 3]: 28.9 µM

Cn1nc(NS(=O)(=O)C(F)(F)F)c2c(Cl)ccc(-c3ccc(C#CC(C)(C)O)nc3[C@H](Cc3cc(F)cc(F)c3)NC(=O)Cn3nc(C(F)F)c4c3C(F)(F)[C@@H]3C[C@H]43)c21 [Compound 171D]
CC50 [2]: > 42.5 µM
